Reference: patent publication US12559492B2, “BRAF degraders” (C4 Therapeutics, Inc., priority 2020, dated 2026)

Molecular target: BRAF^V600E protein (Homo sapiens, UniProt P15056, V600E)
Test: HiBiT cellular BRAF V600E degradation assay
Type: cell-based
Details: 24 h incubation; for DC50: A375.10 cells (HiBiT tag knocked in at N-terminal of BRAF V600E), concentration at which 50% of total cellular BRAF V600E is degraded; for Emax: read-out: HiBit 24 h Emax
[1] = A375.10 cells, Emax = amount of residual protein remaining in the cell after compound treatment

Chain of BRAF^V600E protein (P15056 whole entry V600E): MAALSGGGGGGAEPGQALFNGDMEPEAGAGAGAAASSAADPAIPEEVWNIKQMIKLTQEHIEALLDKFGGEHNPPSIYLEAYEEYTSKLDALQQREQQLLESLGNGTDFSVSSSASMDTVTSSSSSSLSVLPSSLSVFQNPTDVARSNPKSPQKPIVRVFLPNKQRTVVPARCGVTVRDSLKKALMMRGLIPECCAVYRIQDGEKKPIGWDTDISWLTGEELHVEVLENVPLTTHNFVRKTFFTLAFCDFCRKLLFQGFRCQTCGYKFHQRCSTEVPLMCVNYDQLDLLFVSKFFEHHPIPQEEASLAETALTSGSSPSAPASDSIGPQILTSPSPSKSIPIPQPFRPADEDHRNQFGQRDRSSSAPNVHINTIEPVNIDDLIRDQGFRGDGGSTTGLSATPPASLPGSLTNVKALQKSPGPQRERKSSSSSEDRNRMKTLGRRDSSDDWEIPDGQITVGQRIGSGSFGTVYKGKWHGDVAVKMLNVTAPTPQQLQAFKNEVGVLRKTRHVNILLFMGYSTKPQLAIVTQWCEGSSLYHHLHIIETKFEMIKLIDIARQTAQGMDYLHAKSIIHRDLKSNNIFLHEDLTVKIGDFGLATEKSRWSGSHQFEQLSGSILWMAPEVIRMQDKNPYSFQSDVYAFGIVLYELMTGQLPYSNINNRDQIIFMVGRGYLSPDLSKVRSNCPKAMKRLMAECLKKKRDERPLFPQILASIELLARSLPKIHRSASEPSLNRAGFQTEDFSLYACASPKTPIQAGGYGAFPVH

| DC50 [nM] | Emax [1] [%] | HiBit 24 h Emax [1] [%] | Compound |
| --- | --- | --- | --- |
| 5.12 | 14.3 | – | CCN(C)S(=O)(=O)Nc1ccc(F)c(C(=O)c2c[nH]c3ncc(-c4cnc(N5CCN(C(=O)CC6CCN(c7ccc8c(N9CCC(=O)NC9=O)nn(C)c8c7)CC6)CC5)nc4)cc23)c1F [Example 56, 3-(2,4-dioxohexahydropyrimidin-1-yl)-6-[4-[2-[4-[5-[3-[3-[[ethyl(methyl)sulfamoyl]amino]-2,6-difluoro-benzoyl]-1H-pyrrolo[2,3-b]pyridin-5-yl]pyrimidin-2-yl]piperazin-1-yl]-2-oxo-ethyl]-1-piperidyl]-1-methyl-indazole] |
| 10.1 | 18.2 | – | CCN(C)S(=O)(=O)Nc1ccc(F)c(C(=O)c2c[nH]c3ncc(-c4cnc(N5CCN(C(=O)CC6(O)CCN(c7ccc(NC8CCC(=O)NC8=O)cn7)CC6)CC5)nc4)cc23)c1F (stereo not shown) [Example 57, 5-[2-[4-[2-[1-[5-[(2,6-dioxo-3-piperidyl)amino]-2-pyridyl]-4-hydroxy-4-piperidyl]acetyl]piperazin-1-yl]pyrimidin-5-yl]-3-[3-[[ethyl(methyl)sulfamoyl]amino]-2,6-difluoro-benzoyl]-1H-pyrrolo[2,3-b]pyridine] |
| 4.25 | 9.42 | – | CCN(C)S(=O)(=O)Nc1ccc(F)c(C(=O)c2c[nH]c3ncc(-c4cnc(N5CCN(C(=O)CC6(O)CCN(c7ncc(NC8CCC(=O)NC8=O)cc7F)CC6)CC5)nc4)cc23)c1F (stereo not shown) [Example 58, 5-[2-[4-[2-[1-[5-[(2,6-dioxo-3-piperidyl)amino]-3-fluoro-2-pyridyl]-4-hydroxy-4-piperidyl]acetyl]piperazin-1-yl]pyrimidin-5-yl]-3-[3-[[ethyl(methyl)sulfamoyl]amino]-2,6-difluoro-benzoyl]-1H-pyrrolo[2,3-b]pyridine] |
| 2.41 | 8.84 | – | CCN(C)S(=O)(=O)Nc1ccc(F)c(C(=O)c2c[nH]c3ncc(-c4cnc(N5CCN(C(=O)CC6(O)CCN(c7ccc(NC8CCC(=O)NC8=O)cc7F)CC6)CC5)nc4)cc23)c1F (stereo not shown) [Example 59, 5-[2-[4-[2-[1-[4-[(2,6-dioxo-3-piperidyl)amino]-2-fluoro-phenyl]-4-hydroxy-4-piperidyl]acetyl]piperazin-1-yl]pyrimidin-5-yl]-3-[3-[[ethyl(methyl)sulfamoyl]amino]-2,6-difluoro-benzoyl]-1H-pyrrolo[2,3-b]pyridine] |
| 3.75 | 7.83 | – | CCN(C)S(=O)(=O)Nc1ccc(F)c(C(=O)c2c[nH]c3ncc(-c4cnc(N5CCN(C(=O)CN6CCC(c7ccc8c(N9CCC(=O)NC9=O)nn(C)c8c7)C(F)(F)C6)CC5)nc4)cc23)c1F (stereo not shown) [Example 61, 3-(2,4-dioxohexahydropyrimidin-1-yl)-6-[1-[2-[4-[5-[3-[3-[[ethyl(methyl)sulfamoyl]amino]-2,6-difluoro-benzoyl]-1H-pyrrolo[2,3-b]pyridin-5-yl]pyrimidin-2-yl]piperazin-1-yl]-2-oxo-ethyl]-3,3-difluoro-4-piperidyl]-1-methyl-indazole] |
| 40.2 | 11.8 | – | CCN(C)S(=O)(=O)Nc1ccc(F)c(C(=O)c2c[nH]c3ncc(-c4cnc(N5CCCN(C(=O)CN6CCC(c7ccc(NC8CCC(=O)NC8=O)cc7)CC6)CC5)nc4)cc23)c1F (stereo not shown) [Example 63, 5-[2-[4-[2-[4-[4-[(2,6-dioxo-3-piperidyl)amino]phenyl]-1-piperidyl]acetyl]-1,4-diazepan-1-yl]pyrimidin-5-yl]-3-[3-[[ethyl(methyl)sulfamoyl]amino]-2,6-difluoro-benzoyl]-1H-pyrrolo[2,3-b]pyridine] |

More lines, now with the values behind:

| Compound | DC50 [nM] | Emax [1] [%] | HiBit 24 h Emax [1] [%] |
| --- | --- | --- | --- |
| CCN(C)S(=O)(=O)Nc1ccc(F)c(C(=O)c2c[nH]c3ncc(-c4cnc(N5CCN(C(=O)CC6CCN(c7ccc8c(c7)n(C)c(=O)n8C7CCC(=O)NC7=O)CC6)CC5)nc4)cc23)c1F (stereo not shown) [Example 43, 1-(2,6-dioxo-3-piperidyl)-5-[4-[2-[4-[5-[3-[3-[[ethyl(methyl)sulfamoyl]amino]-2,6-difluoro-benzoyl]-1H-pyrrolo[2,3-b]pyridin-5-yl]pyrimidin-2-yl]piperazin-1-yl]-2-oxo-ethyl]-1-piperidyl]-3-methyl-2-oxo-benzimidazole] | 22.1 | 35.2 | – |
| CCN(C)S(=O)(=O)Nc1ccc(F)c(C(=O)c2c[nH]c3ncc(-c4cnc(N5CCN(C(=O)CN6CCC(c7ccc(N8CCC(=O)NC8=O)cc7F)CC6)CC5)nc4)cc23)c1F [Example 44, 5-[2-[4-[2-[4-[4-(2,4-dioxohexahydropyrimidin-1-yl)-2-fluoro-phenyl]-1-piperidyl]acetyl]piperazin-1-yl]pyrimidin-5-yl]-3-[3-[[ethyl(methyl)sulfamoyl]amino]-2,6-difluoro-benzoyl]-1H-pyrrolo[2,3-b]pyridine] | 41.3 | 13.2 | – |
| CCN(C)S(=O)(=O)Nc1ccc(F)c(C(=O)c2c[nH]c3ncc(-c4cnc(N5CCN(C(=O)CC6CCN(c7c(F)cc(NC8CCC(=O)NC8=O)cc7F)CC6)CC5)nc4)cc23)c1F (stereo not shown) [Example 45, 5-[2-[4-[2-[1-[4-[(2,6-dioxo-3-piperidyl)amino]-2,6-difluoro-phenyl]-4-piperidyl]acetyl]piperazin-1-yl]pyrimidin-5-yl]-3-[3-[[ethyl(methyl)sulfamoyl]amino]-2,6-difluoro-benzoyl]-1H-pyrrolo[2,3-b]pyridine] | 23.6 | 14.2 | – |
| CCN(C)S(=O)(=O)Nc1ccc(F)c(C(=O)c2c[nH]c3ncc(-c4cnc(N5CCN(C(=O)CN6CCC(c7c(F)cc(NC8CCC(=O)NC8=O)cc7F)CC6)CC5)nc4)cc23)c1F (stereo not shown) [Example 46, 5-[2-[4-[2-[4-[4-[(2,6-dioxo-3-piperidyl)amino]-2,6-difluoro-phenyl]-1-piperidyl]acetyl]piperazin-1-yl]pyrimidin-5-yl]-3-[3-[[ethyl(methyl)sulfamoyl]amino]-2,6-difluoro-benzoyl]-1H-pyrrolo[2,3-b]pyridine] | 9.1 | 7.88 | – |
| CCN(C)S(=O)(=O)Nc1ccc(F)c(C(=O)c2c[nH]c3ncc(-c4cnc(N5CCN(C(=O)CC6CCN(c7ccc8c(C9CCC(=O)NC9=O)nn(C)c8c7)CC6)CC5)nc4)cc23)c1F (stereo not shown) [Example 47, 3-(2,6-dioxo-3-piperidyl)-6-[4-[2-[4-[5-[3-[3-[[ethyl(methyl)sulfamoyl]amino]-2,6-difluoro-benzoyl]-1H-pyrrolo[2,3-b]pyridin-5-yl]pyrimidin-2-yl]piperazin-1-yl]-2-oxo-ethyl]-1-piperidyl]-1-methyl-indazole] | 5.38 | 19.3 | – |
| CCN(C)S(=O)(=O)Nc1ccc(F)c(C(=O)c2c[nH]c3ncc(-c4cnc(N5CCN(C(=O)CC6CCN(c7ccc(NC8CCC(=O)NC8=O)cc7F)C6)CC5)nc4)cc23)c1F (stereo not shown) [Example 48, 5-[2-[4-[2-[1-[4-[(2,6-dioxo-3-piperidyl)amino]-2-fluoro-phenyl]pyrrolidin-3-yl]acetyl]piperazin-1-yl]pyrimidin-5-yl]-3-[3-[[ethyl(methyl)sulfamoyl]amino]-2,6-difluoro-benzoyl]-1H-pyrrolo[2,3-b]pyridine] | 23 | 15 | – |
| CCN(C)S(=O)(=O)Nc1ccc(F)c(C(=O)c2c[nH]c3ncc(-c4cnc(N5CCN(C(=O)CN6CC7(C6)CN(c6ccc(NC8CCC(=O)NC8=O)cc6)C7)CC5)nc4)cc23)c1F (stereo not shown) [Example 49, 5-[2-[4-[2-[2-[4-[(2,6-dioxo-3-piperidyl)amino]phenyl]-2,6-diazaspiro[3.3]heptan-6-yl]acetyl]piperazin-1-yl]pyrimidin-5-yl]-3-[3-[[ethyl(methyl)sulfamoyl]amino]-2,6-difluoro-benzoyl]-1H-pyrrolo[2,3-b]pyridine] | 24.9 | 17.5 | – |
| CCN(C)S(=O)(=O)Nc1ccc(F)c(C(=O)c2c[nH]c3ncc(-c4cnc(N5CCN(C(=O)Cc6ccc(N7CCN(C8CCC(=O)NC8=O)C(=O)C7)cc6)CC5)nc4)cc23)c1F (stereo not shown) [Example 50, 5-[2-[4-[2-[4-[4-(2,6-dioxo-3-piperidyl)-3-oxo-piperazin-1-yl]phenyl]acetyl]piperazin-1-yl]pyrimidin-5-yl]-3-[3-[[ethyl(methyl)sulfamoyl]amino]-2,6-difluoro-benzoyl]-1H-pyrrolo[2,3-b]pyridine] | 4.57 | 7.42 | – |
| CCN(C)S(=O)(=O)Nc1ccc(F)c(C(=O)c2c[nH]c3ncc(-c4cnc(N5CCN(C(=O)CC6(O)CCN(c7ccc(NC8CCC(=O)NC8=O)cc7F)C6)CC5)nc4)cc23)c1F (stereo not shown) [Example 51, 5-[2-[4-[2-[1-[4-[(2,6-dioxo-3-piperidyl)amino]-2-fluoro-phenyl]-3-hydroxy-pyrrolidin-3-yl]acetyl]piperazin-1-yl]pyrimidin-5-yl]-3-[3-[[ethyl(methyl)sulfamoyl]amino]-2,6-difluoro-benzoyl]-1H-pyrrolo[2,3-b]pyridine] | 5.51 | 6.09 | – |
| CCN(C)S(=O)(=O)Nc1ccc(F)c(C(=O)c2c[nH]c3ncc(-c4cnc(N5CCN(C(=O)CN6CC[C@@H](c7ccc(NC8CCC(=O)NC8=O)cc7)C(F)(F)C6)CC5)nc4)cc23)c1F (stereo partly drawn) [Example 54, 5-[2-[4-[2-[(4S)-4-[4-[(2,6-dioxo-3-piperidyl)amino]phenyl]-3,3-difluoro-1-piperidyl]acetyl]piperazin-1-yl]pyrimidin-5-yl]-3-[3-[[ethyl(methyl)sulfamoyl]amino]-2,6-difluoro-benzoyl]-1H-pyrrolo[2,3-b]pyridine] | 4.72 | 6.94 | – |
| CCN(C)S(=O)(=O)Nc1ccc(F)c(C(=O)c2c[nH]c3ncc(-c4cnc(N5CCN(C(=O)CN6CC[C@H](c7ccc(NC8CCC(=O)NC8=O)cc7)C(F)(F)C6)CC5)nc4)cc23)c1F (stereo partly drawn) [Example 55, 5-[2-[4-[2-[(4R)-4-[4-[(2,6-dioxo-3-piperidyl)amino]phenyl]-3,3-difluoro-1-piperidyl]acetyl]piperazin-1-yl]pyrimidin-5-yl]-3-[3-[[ethyl(methyl)sulfamoyl]amino]-2,6-difluoro-benzoyl]-1H-pyrrolo[2,3-b]pyridine] | 4.61 | – | 6.57 |
